Experimental findings from patent US4476137A, “[1-(2-Benzoxazolyl)hydrazino]alkyl nitrile derivatives” (Abbott Laboratories, priority 1983, dated 1984) are described below.

The subject of the first experiment is carrageenin pleurisy. Briefly: modified carrageenin pleurisy assay (reduction in accumulation of exudate volume and leukocytes). The class given is in vivo. The following applies: Dose 100 (unit not given). The source says: The anti-inflammatory activity of these compounds was established by using a modification of the carrageenin pleurisy assay described in Vinegar et al. Proc. Soc. Exp. Biol. Med. 143:711 (1973).
For `CCCCC1C(=O)N(c2ccccc2)N(c2ccccc2)C1=O` [Phenylbutazone, reference compound], the “% Inhibition Cells (leukocyte accumulation)” value stood at 13% and the “% Inhibition Volume exudates” value was determined as 59%.
On to `N#CCCN(N)c1nc2ccccc2o1` [3-[1-(2-Benzoxazolyl)hydrazino]propanenitrile], for which the “% Inhibition Cells (leukocyte accumulation)” value was 39% and the “% Inhibition Volume exudates” value stood at 61%.

A further experiment relates to dermal Arthus reaction. Briefly: reverse passive Arthus reaction test (Type III hypersensitivity), reduction of dermal lesion. The class given is in vivo, Male Sprague-Dawley rats. Particulars: 100 mg/kg oral, 30 min before intradermal Anti-B.S.A.; lesion measured four hours later; 4 rats per group. The protocol:
Proc. 35, 774 (1976). Each compound was administered orally to a group of four animals.
The […] passive Arthus reaction test in rats is conducted as follows: Male Sprague-Dawley rats weighing approximately 130-160 g. are used, 4 rats per group. All animals are injected intravenously with 0.5 ml. 0.075% Bovine Serum Albumin (B.S.A.)+2% Evans Blue solution. Each rat then receives an oral dose of drug; one drug is administered per group.
Thirty minutes subsequent to drug dosing, each animal is injected intradermally with 0.05 ml. 1.44% Anti-B.S.A. into the dorsal skin. Four hours later the animals are sacrificed, the dorsal skin reflexed, and the lesion excised. Two perpendicular diameters of each lesion are measured. The average diameters of the lesions from the treated groups are compared with the average diameters from the control group to determine any drug effect.
On to `CCCCC1C(=O)N(c2ccccc2)N(c2ccccc2)C1=O` [Phenylbutazone, reference compound], for which the “% Inhibition of lesion of dermal Arthus reaction” value was “inactive”.
Consider `N#CCCN(N)c1nc2ccccc2s1` [3-[1-(2-benzthiazolyl)hydrazino]propanenitrile], for which the “% Inhibition of lesion of dermal Arthus reaction” value was determined as 59%.

The same experiment, now with this note: Rattus norvegicus, 4 h; 100 mg/kg oral, 30 min before intradermal Anti-B.S.A.; lesion measured four hours later; 4 rats per group.
In general, inhibition in vivo refers to the change of the read-out against control, counted positive when it falls. Read a high inhibition in vivo as a strong effect. Regarding `Cc1ccc2oc(N(N)CCC#N)nc2c1` [3-[1-(5-methyl-2-benzoxazolyl)hydrazino]propanenitrile], the inhibition in vivo at 100 mg/kg amounted to 70%.
For the molecule `Cc1cc(C)c2oc(N(N)CCC#N)nc2c1` [3-[1-(5,7-dimethyl-2-benzoxazolyl)hydrazino]propanenitrile], the inhibition in vivo at 100 mg/kg was determined as 59%.
In turn, `N#CCCN(N)c1nc2cc(CS)ccc2o1` [3-[1-(5-mercaptomethyl-2-benzoxazolyl)hydrazino]propanenitrile] displayed an inhibition in vivo at 100 mg/kg of 40%.
`N#CCCN(N)c1nc2cc(C(F)(F)F)ccc2o1` [3-[1-(5-trifluoromethyl-2-benzoxazolyl)hydrazino]propanenitrile] returned an inhibition in vivo at 100 mg/kg of 48%.
With `Cc1cc2oc(N(N)CCC#N)nc2cc1Cl` [3-[1-(6-methyl-5-chloro-2-benzoxazolyl)hydrazino]propanenitrile], 100 mg/kg produced 76% inhibition in vivo.
Turning to `Cc1ccc2nc(N(N)CCC#N)oc2c1` [3-[1-(6-methyl-2-benzoxazolyl)hydrazino]propanenitrile], the inhibition in vivo at 100 mg/kg came to 58%.
As for `Cc1cc2oc(N(N)CCC#N)nc2c(C)c1C` [3-[1-(4,5,6-Trimethyl-2-benzoxazolyl)hydrazino]propanenitrile], the inhibition in vivo at 100 mg/kg was found to be 59%.
Molecule `COc1ccc2oc(N(N)CCC#N)nc2c1` [3-[1-(5-methoxy-2-benzoxazolyl)hydrazino]propanenitrile] yielded an inhibition in vivo at 100 mg/kg of 67%.
On to `CC(CC#N)N(N)c1nc2ccccc2o1` (stereo not shown) [3-[1-(2-benzoxazolyl)hydrazino]-3-methylpropanenitrile], for which at 100 mg/kg the inhibition in vivo was 48%.
Take `N#CCCN(N)c1nc2cccc(Cl)c2o1` [3-[1-(7-Chloro-2-benzoxazolyl)hydrazino]propanenitrile]: the inhibition in vivo at 100 mg/kg was 48%.
In turn, `N#CCCN(N)c1nc2cc(F)ccc2o1` [3-[1-(5-fluoro-2-benzoxazolyl)hydrazino]propanenitrile] came in with an inhibition in vivo at 100 mg/kg of 55%.
The same measure, in the same setting: under `Cc1cccc2nc(N(N)CCC#N)oc12` [3-[1-(7-methyl-2-benzoxazolyl)hydrazino]propanenitrile] stands 47%.
Take `N#CCCN(N)c1nc2ccccc2o1` [3-[1-(2-Benzoxazolyl)hydrazino]propanenitrile]: 100 mg/kg produced 68% inhibition in vivo.
Still for that read-out and setting: with `N#CCCN(N)c1nc2cc(C#N)ccc2o1` [3-[1-(5-cyano-2-benzoxazolyl)hydrazino]propanenitrile] the figure was 66%.
`CC(C#N)CN(N)c1nc2ccccc2o1` (stereo not shown) [3-[1-(2-benzoxazolyl)hydrazino]-2-methylpropanenitrile] showed an inhibition in vivo at 100 mg/kg of 45%.
For the molecule `Cc1cc(C)c2oc(N(N)CCC#N)nc2c1C` [3-[1-(4,5,7-Trimethyl-2-benzoxazolyl)hydrazino]propanenitrile], 100 mg/kg produced 55% inhibition in vivo.
